According to patent US6818612B2, “Use of parvovirus capsid particles in the inhibition of cell proliferation and migration” (priority 1998, dated 2004):

Tests used:
[1] = test system: hematopoietic cells obtained from the bone marrow of monkeys; test: Colony formation assay on monkey bone marrow cells (Baboon); format: cell-based; conditions: FIG. 2, varying concentrations of capsid
Protocol: (§1) Additionally, colony formation assays in the presence of B19 parvovirus […] were performed, as described above, using hematopoietic cells obtained from the bone marrow of monkeys (Baboons and Macaques).

[2] = test system: umbilical cord blood cells; test: Colony formation assay on cord blood cells; format: cell-based, human; conditions: for Colony Counts (% of medium control) BFU-E / Colony Counts (% of medium control) CFU-GEMM / Colony Counts (% of medium control) CFU-GM: Cord blood cells, 11 day culture
Description: (§2) A commercial kit—the “Stem cell CFU kit” (GIBCO BRL, Life Technology Inc., NY, USA)—was used to perform the colony formation assays. The kit provides a semi-solid support that mimics the extracellular matrix produced by stromal cells. Other components included in the kit are: Iscove's modified Dulbecco's medium, modified fetal bovine serum, methylcellulose, 2-mercaptoethanol, conditioned medium and erythropoietin. The colonies that were formed in the assay were identified as BFU-E (burst forming unit-erythroid cells) with densely packed hemoglobonized cells, CFU-GM (colony forming units-granulocytes, macrophages) with arrangements of non-hemoglobinized cells, and CFU-GEMM (colony forming units-granulocytes, erythroid cells, macrophages, megakaryocytes) with hemoglobinized cells and small and large peripheral cells.
(§3) Recombinant B19 parvovirus empty capsid particles (Kajigaya et al., Proc Natl Acad Sci USA, 88:4646 (1991)) were prepared in a recombinant baculovirus-insect cell (Spodofera frugiperda) expression system. (Kajigaya et al., Proc Natl Acad Sci USA, 88:4646 (1991)). The isolated or purified capsids were diluted in buffer (20 mM Tris, 0.5M NaCl, pH 8.5) and 30 μL of each dilution was added to approximately 25×10^3 cells (50×10^3 for postnatal cells) in 100 μL of culture medium and incubated for 1 hour at 4° C. The mixtures were then transferred to incubation dishes and culture medium was added to a final volume of 0.5 ml per well. The cells were then incubated for 11 days in a humidified atmosphere at 5% CO2, and were scored for BFU-E, CFU-GM and CFU-GEMM derived colony formation.
(§4) The inhibitory effect of B19 parvovirus capsids on colony formation was also tested using fresh stem cells derived from cord blood and adult bone marrow samples. Colony formation assays in the presence of B19 parvovirus capsids were performed on cells obtained from umbilical cord blood and bone marrow using the protocol described above. Umbilical cord blood samples were obtained immediately after vaginal delivery from normal births. Samples of adult bone marrow were obtained from healthy allogeneic donors. Suspensions of fresh cells were heparinized and diluted in 0.9% NaCl and separated on Lymphoprep (Nycomed, Parma, Oslo, Norway) for gradient centrifugation at 2000 rpm for 20 min. Cells were carefully removed with a Pasteur pipette, washed three times in 0.9% NaCl, counted and diluted in culture medium in preparation for the colony formation assays.

[3] = test system: human fetal liver cells; test: Colony formation assay (Stem cell CFU kit, 11 day) of fetal liver cells; format: cell-based
Description: In a first set of experiments, it was discovered that B19 parvovirus capsids inhibit hematopoiesis and that these molecules could be used to reduce the overproduction of red blood cells, white blood cells, and blood platelets, as is experienced by patients suffering from hematological proliferative diseases, such as Polycytemia Vera. (See FIG. 1A). In a first set of experiments, fresh human fetal liver cells, umbilical cord blood cells, and bone marrow cells were contacted with recombinant B19 parvovirus capsids in a colony formation assay. The general features of a colony formation assay are depicted in FIG. 1B. The ability of the B19 parvovirus capsids to inhibit hematopoiesis was verified by the reduction of colony formation in the presence of the capsids, as compared to untreated control populations of cells. A more detailed description of these experiments is provided below.
To obtain fetal liver tissue, human fetuses 6-12 weeks of gestational age were obtained from legal abortions; the patients had volunteered to donate fetal tissue. Gestational age was estimated according to specific anatomical markers and is given as menstruational age. Abortions were performed with vacuum aspirations. Fetal liver was dissected under sterile conditions, placed in a sterile tube containing RPMI1640 and disintegrated by passage through a vinyl mesh to form a single cell suspension. Nucleated cells were then washed three times, counted and diluted in culture medium.
as §2, §3

[4] = test system: hematopoietic cells obtained from the bone marrow of monkeys; test: Colony formation assay on monkey bone marrow cells (Macaque); format: cell-based; conditions: FIG. 2, varying concentrations of capsid
Protocol: as §1

[5] = test system: adult bone marrow cells; test: Colony formation assay on adult bone marrow cells; format: cell-based, human; conditions: for Colony Counts (% of medium control) BFU-E / Colony Counts (% of medium control) CFU-GEMM / Colony Counts (% of medium control) CFU-GM: Bone marrow cells, 11 day culture
Description: as §2, §3, §4

[6] = B19 parvovirus capsid 0.0007 μg/ml
[7] = B19 parvovirus capsid 0.007 μg/ml
[8] = B19 parvovirus capsid 0.07 μg/ml
[9] = B19 parvovirus capsid 0.7 μg/ml
[10] = B19 parvovirus capsid 7.0 μg/ml
[11] = compared with fetal liver cells
[12] = capsid only, B19 parvovirus capsid 0.14 μg/ml, fetal liver cells, 11 day culture
[13] = capsid only, B19 parvovirus capsid 7 μg/ml, fetal liver cells, 11 day culture
[14] = fetal liver cells, 0.07 μg/ml VP1/2 capsid, FIG. 3
[15] = fetal liver cells, B19 parvovirus capsid 0.007 μg/ml, 11 day culture
[16] = fetal liver cells, B19 parvovirus capsid 0.7 μg/ml, 11 day culture
[17] = fetal liver cells, B19 parvovirus capsid 70.0 μg/ml, pre-incubated prior to 11 day culture

## B19 parvovirus capsid: Recombinant empty B19 parvovirus capsid particles (95% VP2, 5% VP1) from a baculovirus-insect cell expression system
[1]
  primate hematopoietic cell growth: decreased in concordance with an increase in concentration of B19 parvovirus capsid
[2]; [6]
  Colony Counts (% of medium control) BFU-E: 84% of medium control
  Colony Counts (% of medium control) CFU-GEMM: 93% of medium control
  Colony Counts (% of medium control) CFU-GM: 79% of medium control
[2]; [7]
  Colony Counts (% of medium control) BFU-E: 57% of medium control
  Colony Counts (% of medium control) CFU-GEMM: 70% of medium control
  Colony Counts (% of medium control) CFU-GM: 67% of medium control
[2]; [8]
  Colony Counts (% of medium control) BFU-E: 49% of medium control
  Colony Counts (% of medium control) CFU-GEMM: 50% of medium control
  Colony Counts (% of medium control) CFU-GM: 72% of medium control
[2]; [9]
  Colony Counts (% of medium control) BFU-E: 33% of medium control
  Colony Counts (% of medium control) CFU-GEMM: 43% of medium control
  Colony Counts (% of medium control) CFU-GM: 62% of medium control
[2]; [10]
  Colony Counts (% of medium control) BFU-E: 10% of medium control
  Colony Counts (% of medium control) CFU-GEMM: 43% of medium control
  Colony Counts (% of medium control) CFU-GM: 54% of medium control
[2]; FIG. 1C, varying concentrations of capsid
  growth of cells obtained from human cord blood: decreased as the concentration of B19 parvovirus capsid increased
[2]; [11]
  ability to inhibit hematopoietic cells obtained from cord blood: comparable to that exhibited with fetal liver cells
[3]; B19 parvovirus capsids 0.14 μg/ml, in the absence of sera
  inhibition of fetal liver cell colony formation: significantly inhibited
[3]; [12]
  Colony Counts (% of medium control) BFU-E: 18% of medium control
  Colony Counts (% of medium control) CFU-GEMM: 63% of medium control
  Colony Counts (% of medium control) CFU-GM: 17% of medium control
[3]; [13]
  Colony Counts (% of medium control) BFU-E: 43% of medium control
  Colony Counts (% of medium control) CFU-GEMM: 21% of medium control
  Colony Counts (% of medium control) CFU-GM: 30% of medium control
[3]; [14]
  colony formation, % of the medium control: ~60 % of the medium control
  inhibition of colony formation: approximately 40%
[3]; fetal liver cells, 70.0 μg/ml B19 parvovirus capsid
  inhibition of colony formation of hematopoietic cells: considerable inhibition
[3]; fetal liver cells, 11 day colony formation assay, 'as little as' / 'as low as'
  lowest concentration at which inhibition of colony formation of hematopoietic cells was seen: 0.007 µg/mL
[3]; [15]
  Colony Counts (% of medium control) BFU-E: 79% of medium control
  Colony Counts (% of medium control) CFU-GEMM: 94% of medium control
  Colony Counts (% of medium control) CFU-GM: 95% of medium control
[3]; [16]
  Colony Counts (% of medium control) BFU-E: 39% of medium control
  Colony Counts (% of medium control) CFU-GEMM: 63% of medium control
  Colony Counts (% of medium control) CFU-GM: 54% of medium control
[3]; [17]
  Colony Counts (% of medium control) BFU-E: 22% of medium control
  Colony Counts (% of medium control) CFU-GEMM: 31% of medium control
  Colony Counts (% of medium control) CFU-GM: 14% of medium control
[4]
  primate hematopoietic cell growth: decreased in concordance with an increase in concentration of B19 parvovirus capsid
[5]; [6]
  Colony Counts (% of medium control) BFU-E: 86% of medium control
  Colony Counts (% of medium control) CFU-GEMM: 78% of medium control
  Colony Counts (% of medium control) CFU-GM: 77% of medium control
[5]; [7]
  Colony Counts (% of medium control) BFU-E: 76% of medium control
  Colony Counts (% of medium control) CFU-GEMM: 78% of medium control
  Colony Counts (% of medium control) CFU-GM: 80% of medium control
[5]; [8]
  Colony Counts (% of medium control) BFU-E: 63% of medium control
  Colony Counts (% of medium control) CFU-GEMM: 44% of medium control
  Colony Counts (% of medium control) CFU-GM: 41% of medium control
[5]; [9]
  Colony Counts (% of medium control) BFU-E: 43% of medium control
  Colony Counts (% of medium control) CFU-GEMM: 28% of medium control
  Colony Counts (% of medium control) CFU-GM: 45% of medium control
[5]; [10]
  Colony Counts (% of medium control) BFU-E: 18% of medium control
  Colony Counts (% of medium control) CFU-GEMM: 6% of medium control
  Colony Counts (% of medium control) CFU-GM: 36% of medium control
[5]; [11]
  ability to inhibit hematopoietic cells obtained from bone marrow: comparable to that exhibited with fetal liver cells
